The record followed here is paper PMC12652692, “Synthesis and In Vitro Anticancer Evaluation of Novel Phosphonium Derivatives of Chrysin” (International Journal of Molecular Sciences, 2025).

SMILES strings stand for the structures.

What all share (assay): NCI60 one-dose screen
Type in all cases: cell-based

Assay [1] relates to SF-295. Conditions: Homo sapiens; SF-295, 10 μM; read-out: Growth percent. How it is done: (§1) The screening results are presented in the Supplementary Materials (Table S1), where the cytotoxicity was determined for the 10 µM concentration. […] The negative numbers indicate significant decreases in the cell number. […] Compared to the reference chrysin (2), all phosphonium hybrids (3a–h) had significant antiproliferative activities. […] At the same time, it should be noted that more than 60% average reduction was also obtained in the case of the other examined conjugates (3a–h).
(§2) A detailed description of the NCI screening procedures, including the one-dose and five-dose tests, can be found in the Supplementary Materials, on the website of NCI [39], and in our previous work.
(§3) A detailed description of the NCI screening procedures can also be found on the website of NCI [39], and in our […]
(§4) All candidates were examined at first at a single high dose (10 μM) in the full NCI60 cell panel. The value reported for the one-dose test is growth relative to the no-drug control and relative to the time zero number of cells. This made possible the disclosure of both growth inhibition (numbers between 0 and 100) and lethality (numbers less than 0). For example, a value of 100 means no growth inhibition. A value of 20 would mean 80% growth inhibition. A value of 0 means no net growth over the course of the analysis. A value of −20 would mean 20% lethality. A value of −100 means all cells are dead. […]
(§5) concentration levels. The human tumor cell lines of the cancer screening panel were grown in RPMI 1640 medium containing 5% fetal bovine serum and 2 mM l-glutamine. Characteristically, cells were injected in 96-well microtiter plates in 0.1 mL at plating densities ranging from 5000 to 40,000 cells/well, depending on the doubling time of individual cell lines. After cell inoculation, the microtiter plates were incubated at 37 °C, 5% carbon dioxide, 95% air, and 100% relative humidity for 24 hours before the addition of tested compounds. After 24 hours, 2 plates of each cell line were fixed in situ with Cl3COOH (TCA), to represent a measurement of the cell population for each cell line at the time of drug addition (tz). Tested compounds were solubilized in DMSO at 400-fold the desired final maximum test concentration and stored frozen before application. In the course of the drug addition, an aliquot of frozen concentrate was thawed and diluted to twice the desired final maximum test concentration with a complete medium containing 50 μg mL−1 gentamicin. Additional four, 10-fold or ½ log serial dilutions were produced to furnish a total of five drug concentrations plus control. Aliquots of 0.1 mL of these different drug dilutions were added to the appropriate microtiter wells already containing 0.1 mL of medium, resulting in the required final drug concentrations.
(§6) Following drug addition, the plates were incubated at 37 °C, 5% carbon dioxide, 95% air, and 100% relative humidity for an additional 48 hours. For adherent cells, the test was finished by the addition of cold Cl3COOH. Cells were fixed in situ by the addition of 50 μL of cold 50% (w/v) Cl3COOH, and incubated at 4 °C for 1 hour. The supernatant was discarded, and the plates were washed with H2O (5×) and dried in air. Sulforhodamine B (SRB) solution (0.1 mL) at 0.4% (w/v) in 1% CH3COOH was added to each well, and plates were incubated at RT for 10 min. After staining, the unbound dye was removed by washing five times with 1% CH3COOH, and the plates were dried in the air. The bound stain is afterward solubilized with a 10 mM trizma base, and the absorbance is read on an automated plate reader at λ = 515 nm. Utilizing the seven absorbance measurements [time zero (tz), control growth (c), and test growth in the presence of the drug at the five concentration levels (ti)], the percentage growth was determined at each of the drug concentration levels. Growth inhibition (%) was calculated as:
(§7) [(ti − tz)/(c − tz)] × 100, for concentrations where ti ≥ tz (1) […]

For assay [2], the system named is A498. Conditions: Homo sapiens; A498, 10 μM; read-out: Growth percent. The procedure:
as §1, §2, §3, §4, §5, §6, §7

The test system of assay [3] is SNB-75. Conditions: Homo sapiens; SNB-75, 10 μM; read-out: Growth percent. The procedure:
as §1, §2, §3, §4, §5, §6, §7

Assay [4] relates to U251. The conditions noted are these: Homo sapiens, U-251; U251, 10 μM; read-out: Growth percent. The procedure:
as §1, §2, §3, §4, §5, §6, §7

Assay [5] has as its system IGROV1. The conditions noted are these: Homo sapiens, IGROV-1; IGROV1, 10 μM; read-out: Growth percent. The procedure: as §1, §2, §3, §4, §5, §6, §7
Assay [6] relates to OVCAR-8. Conditions: Homo sapiens; OVCAR-8, 10 μM; read-out: Growth percent. How it is done: as §1, §2, §3, §4, §5, §6, §7
Assay [7] concerns NCI/ADR-RES. The conditions noted are these: Homo sapiens, read-out: Growth percent. The procedure: as §1, §2, §3, §4, §5, §6, §7
In assay [8] the test system is OVCAR-3. Conditions: Homo sapiens; OVCAR-3, 10 μM; read-out: Growth percent. How it is done: as §1, §2, §3, §4, §5, §6, §7
Assay [9] concerns HCT-15. Conditions: Homo sapiens; HCT-15, 10 μM; read-out: Growth percent. The procedure:
as §1, §2, §3, §4, §5, §6, §7

In assay [10] the test system is KM12. The conditions noted are these: Homo sapiens; KM12, 10 μM; read-out: Growth percent. The procedure: as §1, §2, §3, §4, §5, §6, §7
The subject of assay [11] is OVCAR-5. The conditions noted are these: Homo sapiens; OVCAR-5, 10 μM; read-out: Growth percent. How it is done: as §1, §2, §3, §4, §5, §6, §7
Assay [12] concerns SW-620. The conditions noted are these: Homo sapiens; SW-620, 10 μM; read-out: Growth percent. The procedure:
as §1, §2, §3, §4, §5, §6, §7

Assay [13] relates to UACC-257. The conditions noted are these: Homo sapiens; UACC-257, 10 μM; read-out: Growth percent. The procedure:
as §1, §2, §3, §4, §5, §6, §7

Assay [14] relates to NCI-H460. Conditions: Homo sapiens; NCI-H460, 10 μM; read-out: Growth percent. How it is done: as §1, §2, §3, §4, §5, §6, §7
The subject of assay [15] is RXF 393. Conditions: Homo sapiens; RXF 393, 10 μM; read-out: Growth percent. The procedure: as §1, §2, §3, §4, §5, §6, §7
Assay [16] relates to EKVX. Conditions: Homo sapiens, read-out: Growth percent. How it is done: as §1, §2, §3, §4, §5, §6, §7
Assay [17] has as its system K-562. Conditions: Homo sapiens, K562; K-562, 10 μM; read-out: Growth percent. The procedure: as §1, §2, §3, §4, §5, §6, §7
In assay [18] the test system is MALME-3M. Conditions: Homo sapiens, read-out: Growth percent. The procedure:
as §1, §2, §3, §4, §5, §6, §7

For assay [19], the system named is HS 578T. Conditions: Homo sapiens, read-out: Growth percent. The procedure:
as §1, §2, §3, §4, §5, §6, §7

For assay [20], the system named is CCRF-CEM. Conditions: Homo sapiens, read-out: Growth percent. The procedure:
as §1, §2, §3, §4, §5, §6, §7

Assay [21] concerns NCI-H522. Conditions: Homo sapiens; NCI-H522, 10 μM; read-out: Growth percent. The procedure: as §1, §2, §3, §4, §5, §6, §7

`O=c1cc(-c2ccccc2)oc2cc(OCCCC[P+](c3ccccc3)(c3ccccc3)c3ccccn3)cc(O)c12` [3h]: the activity at 10 µM in [1] is -92.7%; in assay [2] it was -94%; in [3], -47.3%; in [4] it was -96%; in assay [5] it was -80.1%; in [6], -91.6%. The activity at 10 µM was -41.3% in assay [7]; -93.7% in assay [8]; -88% in [9]; -94.6% in [10]; -93.4% in assay [11]; -88.3% in assay [12]. Also, the activity at 10 µM in assay [13] was -89.8%; in assay [14], -84.2%; in assay [15] it was -80.5%; in assay [16] it was -93.1%; in [17] it was -51.3%; in assay [18], -93.4%. Besides, the activity at 10 µM is -35.8% in assay [19], -20.7% in assay [20] and -72.3% in assay [21].

In the case of `O=c1cc(-c2ccccc2)oc2cc(O)cc(O)c12` [compound 2, 5,7-dihydroxyflavone, reference compound], the activity at 10 µM came to 99.9% in [1]; 86.6% in [2]; 89% in assay [3]; 80.7% in assay [4]; 95.2% in [5]; 95.2% in assay [6]. The activity at 10 µM is 92.8% in assay [7]; 97.6% in assay [8]; 81% in [9]; 92.9% in [10]; 99.1% in assay [11]; 102% in [12]. Also, the activity at 10 µM in assay [13] was found to be 119%; in assay [14] it was 98.3%; in [15], 91.2%; in assay [16], 89.3%; in assay [17], 96.8%; in assay [18], 102%. Moreover, the activity at 10 µM in assay [19] is 92.5%; in assay [20] it was 102%; in [21], 89%.

Consider `O=c1cc(-c2ccccc2)oc2cc(OCCCC[P+](c3ccc(F)cc3)(c3ccc(F)cc3)c3ccc(F)cc3)cc(O)c12` [3d], for which the activity at 10 µM in assay [1] is -74%; in assay [2], -87.6%; in assay [3], -78%; in [4], -40.7%; in [5], -64%; in [6], -45.6%. In addition, the activity at 10 µM in assay [7] was 65%; in assay [8], -72%; in assay [9], -48.6%; in assay [10], -81.6%; in assay [11], -89.9%; in [12], -67.5%. Besides, the activity at 10 µM in [13] was -82.1%; in [14] it was -47.4%; in assay [15], -84%; in assay [16], -83.9%; in [17], -17.6%; in [18], -82.4%. Besides, the activity at 10 µM in assay [19] was -54.5%; in assay [20] it was -55.9%; in [21], -74.4%.
